We go through nine compounds from ChEMBL document CHEMBL1909046, “DrugMatrix in vitro pharmacology data”.

*1 amine or outer side, *2 acyl side, *3 side chain or, on linkers, in order; H or OH if unused. Where a SMILES comes first, the peptide text is derived from it. Bridges are numbered along the chain shown (N, C = ends). Roman numbers before positions name the chains, in order. [ ]: non-standard residue; d: D form. Actinocin(1to9) = Cc1c2oc3c(C)ccc(C(=O)[*:2])c3nc-2c(C(=O)[*:1])c(N)c1=O; NMeV = CN[C@H](C(=O)O)C(C)C; Sar = CNCC(=O)O

Usually IC50 stands for the point on the concentration scale where inhibition reaches its midpoint. What is called Ki is the dissociation constant of the complex between target and ligand, obtained from inhibition or displacement.

For series [1], the target named is T1, Cholecystokinin receptor type A (Homo sapiens, UniProt P32238). Further: in other assays of this panel Not Active means under 50% inhibition at 10 µM.
T1 sequence (P32238 whole entry): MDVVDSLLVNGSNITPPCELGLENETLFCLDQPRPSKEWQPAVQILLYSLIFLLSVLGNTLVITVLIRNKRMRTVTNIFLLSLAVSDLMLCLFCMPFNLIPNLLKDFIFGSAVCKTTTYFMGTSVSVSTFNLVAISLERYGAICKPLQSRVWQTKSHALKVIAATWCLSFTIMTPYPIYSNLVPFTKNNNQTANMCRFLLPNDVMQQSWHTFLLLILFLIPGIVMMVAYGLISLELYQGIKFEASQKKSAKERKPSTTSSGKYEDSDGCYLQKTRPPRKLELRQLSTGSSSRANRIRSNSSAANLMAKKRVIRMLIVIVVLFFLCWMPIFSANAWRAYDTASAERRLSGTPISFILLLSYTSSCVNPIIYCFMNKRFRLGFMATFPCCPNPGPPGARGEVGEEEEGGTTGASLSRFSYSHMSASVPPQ
It counts as cell membranes, Membrane. To be noted: 1321-n1.

The next series addresses D(3) dopamine receptor (Homo sapiens, UniProt P35462). The series can be described thus: DRUGMATRIX: Dopamine D3 radioligand binding (ligand: [3H] Spiperone). In kind it is cell membranes, CHO, Membrane.
For series [2], the target named is Delta-type opioid receptor (Homo sapiens, UniProt P41143). In kind it is cell membranes, HEK293, Membrane. Conditions: hek293. Further: in other assays of this panel Not Active means under 50% inhibition at 10 µM.
Sequence of Delta-type opioid receptor (P41143 whole entry): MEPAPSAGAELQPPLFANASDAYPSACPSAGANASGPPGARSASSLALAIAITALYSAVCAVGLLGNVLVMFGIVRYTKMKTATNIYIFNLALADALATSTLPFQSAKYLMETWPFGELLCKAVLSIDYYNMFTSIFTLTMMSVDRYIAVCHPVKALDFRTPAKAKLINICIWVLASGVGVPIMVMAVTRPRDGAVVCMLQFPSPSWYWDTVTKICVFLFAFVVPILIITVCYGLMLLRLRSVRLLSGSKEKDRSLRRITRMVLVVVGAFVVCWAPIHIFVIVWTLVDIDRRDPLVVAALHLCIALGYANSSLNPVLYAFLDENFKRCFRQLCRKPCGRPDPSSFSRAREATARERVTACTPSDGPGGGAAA
Series [3] addresses T2, Receptor-type tyrosine-protein phosphatase C (Homo sapiens, UniProt P08575).
T2 sequence (P08575 whole entry): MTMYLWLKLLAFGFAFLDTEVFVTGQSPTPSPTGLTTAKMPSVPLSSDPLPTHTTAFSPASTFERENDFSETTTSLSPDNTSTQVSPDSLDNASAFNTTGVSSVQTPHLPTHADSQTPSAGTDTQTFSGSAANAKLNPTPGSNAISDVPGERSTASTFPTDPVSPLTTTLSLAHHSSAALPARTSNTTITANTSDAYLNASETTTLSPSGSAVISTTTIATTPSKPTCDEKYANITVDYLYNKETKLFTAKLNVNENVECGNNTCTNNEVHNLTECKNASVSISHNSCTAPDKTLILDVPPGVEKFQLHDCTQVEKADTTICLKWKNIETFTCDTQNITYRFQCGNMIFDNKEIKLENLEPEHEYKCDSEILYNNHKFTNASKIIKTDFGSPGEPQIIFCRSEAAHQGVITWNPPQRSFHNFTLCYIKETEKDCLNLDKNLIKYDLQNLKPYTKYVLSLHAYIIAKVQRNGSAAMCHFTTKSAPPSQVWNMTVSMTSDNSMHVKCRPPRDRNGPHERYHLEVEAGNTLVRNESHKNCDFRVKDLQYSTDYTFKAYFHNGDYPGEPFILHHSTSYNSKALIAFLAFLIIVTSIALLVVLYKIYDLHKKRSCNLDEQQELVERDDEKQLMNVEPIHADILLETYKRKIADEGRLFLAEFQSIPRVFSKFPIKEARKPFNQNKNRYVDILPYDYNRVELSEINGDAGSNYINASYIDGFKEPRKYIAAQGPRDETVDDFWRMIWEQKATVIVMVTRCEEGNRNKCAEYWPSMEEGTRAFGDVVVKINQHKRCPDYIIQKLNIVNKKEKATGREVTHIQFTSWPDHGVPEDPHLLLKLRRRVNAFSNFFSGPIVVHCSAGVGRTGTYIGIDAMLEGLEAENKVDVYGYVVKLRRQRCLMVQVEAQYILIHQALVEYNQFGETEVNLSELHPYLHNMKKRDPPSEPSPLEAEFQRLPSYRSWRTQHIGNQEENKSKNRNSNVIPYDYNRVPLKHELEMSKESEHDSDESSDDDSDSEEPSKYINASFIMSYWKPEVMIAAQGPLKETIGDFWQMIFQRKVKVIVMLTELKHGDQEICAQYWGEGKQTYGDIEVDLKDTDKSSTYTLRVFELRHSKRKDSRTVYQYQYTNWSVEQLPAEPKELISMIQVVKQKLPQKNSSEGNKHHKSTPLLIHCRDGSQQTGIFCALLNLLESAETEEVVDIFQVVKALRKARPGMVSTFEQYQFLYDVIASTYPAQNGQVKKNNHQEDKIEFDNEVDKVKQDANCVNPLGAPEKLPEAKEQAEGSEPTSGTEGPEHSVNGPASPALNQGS
Further details: species or system Escherichia coli.

The next series deals with T3, Androgen receptor (Rattus norvegicus, UniProt P15207).
T3 sequence (P15207 whole entry): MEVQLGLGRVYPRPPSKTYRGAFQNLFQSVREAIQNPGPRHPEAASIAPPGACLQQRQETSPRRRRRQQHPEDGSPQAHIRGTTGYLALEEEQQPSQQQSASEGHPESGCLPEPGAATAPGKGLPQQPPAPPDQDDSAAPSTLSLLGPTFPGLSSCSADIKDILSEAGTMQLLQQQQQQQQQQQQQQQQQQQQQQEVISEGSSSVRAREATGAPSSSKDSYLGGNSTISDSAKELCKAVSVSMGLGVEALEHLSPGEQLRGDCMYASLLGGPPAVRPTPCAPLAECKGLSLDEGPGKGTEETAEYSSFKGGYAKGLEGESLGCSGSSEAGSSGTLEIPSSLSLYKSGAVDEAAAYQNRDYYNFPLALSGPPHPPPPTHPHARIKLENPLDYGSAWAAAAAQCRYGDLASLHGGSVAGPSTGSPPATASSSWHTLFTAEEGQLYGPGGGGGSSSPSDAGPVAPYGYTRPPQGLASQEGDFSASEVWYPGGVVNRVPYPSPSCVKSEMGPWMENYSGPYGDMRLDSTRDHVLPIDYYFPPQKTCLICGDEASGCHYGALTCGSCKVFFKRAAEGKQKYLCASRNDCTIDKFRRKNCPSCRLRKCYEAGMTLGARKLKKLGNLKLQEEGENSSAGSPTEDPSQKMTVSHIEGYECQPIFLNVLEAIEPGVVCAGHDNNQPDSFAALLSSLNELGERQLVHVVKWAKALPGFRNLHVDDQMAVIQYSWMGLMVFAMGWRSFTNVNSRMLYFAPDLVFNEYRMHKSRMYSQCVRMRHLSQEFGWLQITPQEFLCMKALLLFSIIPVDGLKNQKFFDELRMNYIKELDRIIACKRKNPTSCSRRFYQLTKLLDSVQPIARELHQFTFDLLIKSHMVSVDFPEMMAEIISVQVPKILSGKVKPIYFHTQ

Another series concerns the target Cytochrome P450 2D6 (Homo sapiens, UniProt P10635). To be noted: bti-tn-5b1-4. Further: in other assays of this panel Not Active means under 50% inhibition at 10 µM.

Sequence of Cytochrome P450 2D6 (P10635 whole entry): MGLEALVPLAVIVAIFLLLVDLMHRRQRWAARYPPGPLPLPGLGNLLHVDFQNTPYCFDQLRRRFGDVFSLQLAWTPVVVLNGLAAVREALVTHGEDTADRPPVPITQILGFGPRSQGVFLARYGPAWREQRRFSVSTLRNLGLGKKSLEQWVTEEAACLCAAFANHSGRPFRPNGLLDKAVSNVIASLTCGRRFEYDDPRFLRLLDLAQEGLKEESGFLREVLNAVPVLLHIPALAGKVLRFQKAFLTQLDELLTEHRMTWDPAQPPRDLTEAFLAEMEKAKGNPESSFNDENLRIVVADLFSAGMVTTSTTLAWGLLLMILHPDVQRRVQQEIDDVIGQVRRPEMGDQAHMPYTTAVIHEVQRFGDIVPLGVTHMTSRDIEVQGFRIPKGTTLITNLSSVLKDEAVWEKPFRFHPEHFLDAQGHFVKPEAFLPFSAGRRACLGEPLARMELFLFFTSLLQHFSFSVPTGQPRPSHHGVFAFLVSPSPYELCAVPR
Sequence of D(3) dopamine receptor (P35462 whole entry): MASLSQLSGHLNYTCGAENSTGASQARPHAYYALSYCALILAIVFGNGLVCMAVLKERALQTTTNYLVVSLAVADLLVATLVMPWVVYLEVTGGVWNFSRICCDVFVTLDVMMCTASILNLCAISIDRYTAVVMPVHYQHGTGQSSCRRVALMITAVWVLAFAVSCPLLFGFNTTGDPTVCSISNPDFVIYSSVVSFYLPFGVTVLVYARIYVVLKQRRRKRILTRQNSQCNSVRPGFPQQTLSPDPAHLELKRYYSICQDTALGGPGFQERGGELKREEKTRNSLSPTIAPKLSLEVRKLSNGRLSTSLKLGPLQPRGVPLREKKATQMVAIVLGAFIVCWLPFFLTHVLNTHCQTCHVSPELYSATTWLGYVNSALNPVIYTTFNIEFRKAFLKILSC

For the compound `CC(C)(C)NCC(O)c1cc(Cl)c(N)c(Cl)c1` (centres undefined) [CLENBUTEROL], the IC50 result (in series [1]; at D(3) dopamine receptor (cho); in series [2]; in series [3]; on Androgen receptor; at Cytochrome P450 2D6) was “Not Active” each time. Besides, the inhibitory constant (Ki) entry at Cytochrome P450 2D6 is listed as “Not Active”.
For `Cc1c2oc3c(C)ccc(C(=O)N[C@@H]4C(=O)N[C@H](C(C)C)C(=O)N5CCC[C@H]5C(=O)N(C)CC(=O)N(C)[C@@H](C(C)C)C(=O)O[C@@H]4C)c3nc-2c(C(=O)N[C@@H]2C(=O)N[C@H](C(C)C)C(=O)N3CCC[C@H]3C(=O)N(C)CC(=O)N(C)[C@@H](C(C)C)C(=O)O[C@@H]2C)c(N)c1=O` [DACTINOMYCIN] (I: T[dV]P[Sar][NMeV] / II: T[dV]P[Sar][NMeV]; ester I:1-I:C, II:1-II:C; linker I:N-II:N via Actinocin(1to9)), the IC50 entry (in series [1]; on D(3) dopamine receptor (cho); in series [2]; in series [3]; on Androgen receptor; on Cytochrome P450 2D6) was “Not Active” each time. For the same compound, the Ki entry at Cytochrome P450 2D6 is reported as “Not Active”.
For the compound `CNCCCN1c2ccccc2CCc2ccccc21` [DESIPRAMINE], the IC50 result (in series [1]; at D(3) dopamine receptor (cho); in series [2]; in series [3]; at Androgen receptor; against Cytochrome P450 2D6) was “Not Active” each time. The Ki result at Cytochrome P450 2D6 was “Not Active”.
As to `O=c1oc2ccccc2c(O)c1Cc1c(O)c2ccccc2oc1=O` [DICUMAROL], the concentration for half-maximal inhibition (IC50) result (in series [1]; at D(3) dopamine receptor (cho); in series [2]; in series [3]; against Androgen receptor; at Cytochrome P450 2D6) was “Not Active” in each case. The Ki result on Cytochrome P450 2D6 is reported as “Not Active”.
Consider `C[C@H]1O[C@@H](O[C@H]2[C@@H](O)C[C@H](O[C@H]3[C@@H](O)C[C@H](O[C@H]4CC[C@@]5(C)[C@H](CC[C@@H]6[C@@H]5C[C@@H](O)[C@]5(C)[C@@H](C7=CC(=O)OC7)CC[C@]65O)C4)O[C@@H]3C)O[C@@H]2C)C[C@H](O)[C@@H]1O` [DIGOXIN], for which the IC50 result (in series [1]; at D(3) dopamine receptor (cho); in series [2]; in series [3]; at Androgen receptor; on Cytochrome P450 2D6) was “Not Active” in each case. Also, the Ki entry at Cytochrome P450 2D6 is “Not Active”.
In the case of `CC(C)[C@H]1C(=O)N2CCC[C@H]2[C@]2(O)O[C@](NC(=O)[C@@H]3C=C4c5cccc6[nH]cc(c56)C[C@H]4N(C)C3)(C(C)C)C(=O)N12` [ERGOCORNINE], the IC50 result in series [1] is “Not Active”; on D(3) dopamine receptor (read-out: IC50) it was 2.86 nM; in series [2], “Not Active”; in series [3] it was “Not Active”; on Androgen receptor, “Not Active”; against Cytochrome P450 2D6, “Not Active”. Further, the Ki on D(3) dopamine receptor (read-out: Ki) was 0.971 nM; at Cytochrome P450 2D6 it was “Not Active”.
On to `C=C(C)C1(O)OC(=O)C=C1OC` (centres undefined) [PENICILLIC ACID], for which the IC50 result (in series [1]; on D(3) dopamine receptor (cho); in series [2]; in series [3]; at Androgen receptor; against Cytochrome P450 2D6) was “Not Active” in each case. Also, the Ki result on Cytochrome P450 2D6 is recorded as “Not Active”.
As to `CCOc1ccc(NC(C)=O)cc1` [PHENACETIN], the IC50 entry (in series [1]; on D(3) dopamine receptor (cho); in series [2]; in series [3]; against Androgen receptor; against Cytochrome P450 2D6) was “Not Active” each time. The Ki entry at Cytochrome P450 2D6 is reported as “Not Active”.
On to CADMIUM ACETATE, for which the IC50 entry (in series [1]; at D(3) dopamine receptor (cho); in series [2]; in series [3]; on Androgen receptor; against Cytochrome P450 2D6) was “Not Active” in each case. The Ki result (in series [1]; on D(3) dopamine receptor (cho); in series [2]; in series [3]; on Androgen receptor; on Cytochrome P450 2D6) was “Not Active” throughout.
